Reference: US11787781B2, “Inhibiting ataxia telangiectasia and RAD3-related protein (ATR)” (Celator Pharmaceuticals, Inc., priority 2016, dated 2023)

Columns and labels:
Format in all cases: cell-based
H358 cells = assay: Cell death and growth assay, H358 cells; conditions: set concentrations, in combination with Gemcitabine
From the text: In all cases, relative cell proliferation is reduced with the combinations compared to the drugs alone (FIG. 21B-C).

[1] = test system: panel of lung cancer cell lines; assay: […]-GLO cell viability, free drug monotherapy and combination screening
Procedure: In vitro efficacy study was done using […]-GLO Luminescent Cell Viability Assay (Promega) with Corning Cat #3707 384 well White Clear bottom plates. Cells were plated (1000 cells/well) in 384 well format and allowed to incubate at 37° C. for 24 hours. Monotherapy drugs were added at the 24 hr time point and then allowed to incubate at 37° C. for 24 hours. At the 48 hr time point the drugs in media were removed, washed with PBS, and fresh media was added. Cells were then allowed to incubate at 37° C. for 72 hours. […]
At the 120 hr time point media was removed and […]-GLO (CTG) reagent was added (1:1 ratio with PBS). Plates were read using a luminometer (Envision Multilabel reader). […]
Data was analyzed using an in-house algorithm developed using Matlab (Mathworks, Natick Mass.). […]
Data quality control was performed to ensure that the concentration range is optimal according to these rules: (1) if the lowest concentration kills more than 70% of the cells the concentration range is deemed too potent (2) if the highest concentration kills less than 30% of the cells, the concentration range is deemed low or the cell line is too resistant. Additionally, goodness of the fit was evaluated using R^2 and R^2<0.9 is flagged as a bad fit.

SUM149 cells = assay: Cell cycle stage profile, SUM149 cells; conditions: 24 hours after addition of SN38 and ATR inhibitor

- potency (IC50) of chemotherapeutic agent combined with ATR inhibitor, vs Compound 6 ([1]; 1 μg/ml ATR inhibitor with Carboplatin, Gemcitabine or Compound B): more potent
Compound: CN(C)CCC1CCN(CCS(=O)(=O)c2ccc(-c3cnc(N)c(C(=O)Nc4ccccc4)n3)cc2)CC1 [Compound 5, 3-amino-6-(4-((2-(4-(2-(dimethylamino)ethyl)piperidin-1-yl)ethyl)sulfonyl)phenyl)-N-phenylpyrazine-2-carboxamide]
- relative cell proliferation vs the drugs alone (H358 cells): reduced
- monotherapy cell kill IC50, folds lower than Compound 6 ([1]; monotherapy, 24 h exposure): ~3 folds
- cell cycle stage profile vs controls (SUM149 cells): larger percentage of cells are arrested in G2 phase
